Measured values published in PubChem BioAssay AID463136 (University of Pittsburgh Molecular Library Screening Center, 2010).
Records with an inconclusive call do not appear. Active and inactive are the calls of the source. No rule for the calls is given here.

How the values were obtained:
[1] = blockers of dynein-driven microtubule transport – imaging, high-content imaging, dose response (AID 463136); conditions: HCS imaging, dynein-mediated cargo transport inhibition; inhibition at max concentration; at 50 µM; stronger effect = higher value;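 also: mouse mammary adenocarcinoma 3617.4 cells expressing GFP-tagged rat glucocorticoid receptor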; as to inhibition: reference of the scale not given here
[2] = system: HCS imaging, dynein-mediated cargo transport inhibition; assay: as above

Row | Compound | inhibition [1] [%] | IC50 [2]
1 | CC1(C)CC(=O)C2=C(C1)OC1=C(C(=O)CC(C)(C)C1)C2c1ccc(O)cc1O | 65.8 | 22.6 µM
2 | CC1(C)COC(/C=C/c2cccc([N+](=O)[O-])c2)=N1 | 88.6 | 10 µM
3 | O=C(c1nnsc1S(=O)c1ccc(Cl)cc1)N1CCOCC1 (stereo not given) | 76.9 | 2.18 µM
4 | COc1cccc(-n2nc(C#N)c(Cl)cc2=O)c1 | 48.5 | 11.2 µM
5 | CCOC(=O)/C(=C\c1cccnc1)C(=O)c1cc(C(C)=O)c(Nc2ccccc2)s1 | 80.4 | 9.84 µM
6 | O=C(/C=C/Sc1ccccc1)c1ccccc1 | 76.9 | 30.3 µM
7 | N=c1oc2c3c4c(cc2cc1C(=O)Nc1ccccc1)CCCN4CCC3 | 99 | > 50 µM (inactive)
8 | O=C(Nc1ccccc1)c1nnsc1S(=O)c1ccc(Cl)cc1 (stereo not given) | 32.1 | > 50 µM (inactive)
9 | CCSc1nc2ccccc2n1C(=O)/C=C\c1ccc(OC)c(OC)c1 | 7.37 | > 50 µM (inactive)
10 | Cc1cc(N2CCCC2)c(F)cc1/C=C\[N+](=O)[O-] | 126 | 25.2 µM
11 | CCOC(=O)C1=C(SCC)c2cc3c(n2C1=O)CCCC3 | 37.7 | > 50 µM (inactive)
12 | O=[N+]([O-])c1cc(S(=O)(=O)N2CCCCCC2)ccc1F | 87.3 | 33.7 µM
13 | COc1cc(N2C(=O)C=CC2=O)c(OC)cc1Cl | 12.9 | > 50 µM (inactive)
14 | Cc1cc(Cl)n2c(nc3cc(F)c(F)cc32)c1C#N | 36.6 | 25.5 µM
15 | CC1C/C(=C/c2ccco2)C(=O)/C(=C/c2ccco2)C1 (stereo not given) | 64.1 | 39.2 µM
16 | CCN(CC)c1ccc(/C=C/C(=O)c2ccc(Br)cc2)cc1 | 7.65 | > 50 µM (inactive)
17 | Cc1ccc(-n2ncc(Br)c(Br)c2=O)cc1 | 70.1 | 13.8 µM
18 | O=C(NC1CCCCC1)C(c1cccnc1)N(C(=O)CCl)c1cccc(Cl)c1 (stereo not given) | 52.2 | 7.48 µM
19 | CNC(=O)c1nnsc1S(=O)c1ccc(Cl)cc1 (stereo not given) | 74.6 | 7.18 µM
20 | CCCCCCN(C(=O)CCl)c1ccccc1 | 80.3 | 17.2 µM
21 | COc1cccc(/C(O)=C/c2nc3ccc(C(=O)NCCc4ccc(Cl)cc4)cc3[nH]c2=O)c1 | 32.4 | > 50 µM (inactive)
22 | C=CS(=O)c1sc(Cl)c(N2CCOCC2)c1[N+](=O)[O-] (stereo not given) | 57.1 | 45.6 µM

Row | Compound | inhibition [1] [%] | IC50 [2]
23 | Cc1ccccc1NC(=O)COC(=O)c1ccc(S(C)(=O)=O)c([N+](=O)[O-])c1 | 81.2 | 31.8 µM
24 | BrC(=C\c1ccccc1)/C=N/n1cnnc1 | 90.7 | 18.4 µM
25 | Cc1ccc(C)c2nc3sc(C(=O)N4CCCc5ccccc54)c(N)c3cc12 | 34.8 | > 50 µM (inactive)
26 | Cn1c(=O)c(NCCO)c2c3c(cccc31)C(=O)c1ccccc1-2 | -13.2 | > 50 µM (inactive)
27 | N#CC1=C(N)OC2=C(CC/C2=C\c2ccccc2)C1c1ccccc1 (stereo not given) | 75.8 | 11.1 µM
28 | Cc1ccccc1N1C(=O)CC(Sc2nnc(-c3ccccc3)o2)C1=O (stereo not given) | 16.4 | > 50 µM (inactive)
29 | CCOC(=O)N1C/C(=C\c2ccccc2)C(=O)/C(=C/c2ccccc2)C1 | 78.7 | 32.8 µM
30 | O=C(/C=C/c1cccnc1)/C=C/c1cccnc1 | 88.7 | 3.09 µM
31 | Cn1c(=O)c(Nc2ccc(Cl)cc2)c2c3c(cccc31)C(=O)c1ccccc1-2 | 97.8 | 31 µM
32 | O=C1C=CC(=O)N1CCNc1ncc(C(F)(F)F)cc1Cl | 21.2 | > 50 µM (inactive)
33 | Cc1ccc(N2C(=O)NC(=O)/C(=C\C=C\c3ccco3)C2=O)cc1C | 83.1 | 32.4 µM
34 | COc1ccc([N+](=O)[O-])c(S(=O)(=O)c2ccc(Cl)cc2)n1 | 34.4 | > 50 µM (inactive)
35 | N#Cc1ccccc1Cn1cc(/C=C/[N+](=O)[O-])c2ccccc21 | 83.6 | 34.6 µM
36 | CC1(C)CCSC(/C=C/c2ccccc2)=N1 | 92.6 | 18.7 µM
37 | CC(C)(C)C(=O)Cn1ncc(Br)c(Br)c1=O | 59.6 | 7.91 µM
38 | Nc1c(C(=O)C2CC2)sc2nc(-c3ccccc3)cc(C(F)(F)F)c12 | 134 | 31.2 µM
39 | COc1ccc(OC)c(N2C(=O)NC(=O)/C(=C\c3ccc([N+](=O)[O-])s3)C2=O)c1 | 86.7 | 11.9 µM
40 | N#CC(C#N)=C1C=C2C=C(N3CCOCC3)CCC2CC1 (stereo not given) | 99 | 42.8 µM
41 | O=C(c1nnsc1S(=O)(=O)c1ccc(Cl)cc1)N1CCOCC1 | 60.5 | 5.38 µM
42 | Cc1nc([N+](=O)[O-])c(Br)n1CC(=O)c1ccc(Br)cc1 | 82 | 14.7 µM
43 | O=c1c(Cl)cc(Cl)nn1-c1ccccc1 | 72.4 | 10.5 µM
44 | CCOC(=O)C(=Cc1c[nH]c2ccc(S(=O)(=O)N(C)C)cc12)C(=O)OCC | 92.8 | 29.5 µM

Row | Compound | inhibition [1] [%] | IC50 [2]
45 | O=c1[nH]sc2cc(F)ccc12 | 91.3 | 12 µM
46 | CCOC(=O)c1c(NC(=S)N2CCCCC2)sc2c1CCN(C(=O)OCC)C2 | 30.3 | > 50 µM (inactive)
47 | O=C1CN(C(=O)Cn2ncc(Cl)c(Cl)c2=O)c2ccccc2N1 | 76.5 | 9.46 µM
48 | O=C1C=C(c2ccc(Cl)cc2)C(=O)N1Nc1ccccc1 | 75.7 | 39.3 µM
49 | N#Cc1cccc(NC(=O)CSc2ccc3c4c(cccc24)C(=O)c2ccccc2-3)c1 | 104 | 33.3 µM
50 | COC(=O)c1cc(=O)n(Cc2cccs2)c(=Nc2ccccc2)s1 | 32.2 | > 50 µM (inactive)
51 | O=C(NC1CCCCC1)C(c1cccnc1)N(C(=O)CCl)c1ccc(F)cc1 (stereo not given) | 82.2 | 12.7 µM
52 | COc1ccc(OC)c(CCNC(=O)Cn2sc3nc(C)cc(C)c3c2=O)c1 | 93.6 | 29.1 µM
53 | O=C(COc1ccc(/C=C\[N+](=O)[O-])cc1)N1CCOCC1 | 13.7 | > 50 µM (inactive)
54 | CCN(CC)c1ccc2cc(-c3nc4ccccc4[nH]3)c(=O)oc2c1 | 98.9 | 21.9 µM
55 | CN(Cc1ccc(Cl)s1)C(=O)CCl | 75.8 | 8.74 µM
56 | Cc1ccnc(N/C=C(\C#N)c2nc(-c3cccc(Br)c3)cs2)c1 | 102 | 8.77 µM
57 | O=C(NCc1cccnc1)/C(=C/c1ccc(-c2cccc(Cl)c2)o1)S(=O)(=O)c1ccccc1 | 42 | > 50 µM (inactive)
58 | CCN1/C(=C/C=C/c2oc3ccc4ccccc4c3[n+]2CC)Oc2ccc3ccccc3c21 | 96.7 | 2.51 µM
59 | CCN1C(=O)C(=C/C=C/c2ccco2)C(=O)N(CC)C1=S | 75.1 | 41.3 µM
60 | CC(C)(C)C(=O)/C=c1\s/c(=C\c2ccc(-c3ccc([N+](=O)[O-])cc3)o2)c(=O)n1CC(=O)NC(N)=O | 98.8 | 0.825 µM
61 | COC(=O)c1cc(=O)n(Cc2ccc3c(c2)OCO3)c(=Nc2ccc(F)c(Cl)c2)s1 | 8.81 | > 50 µM (inactive)
62 | CN(C)CC(C(=O)c1ccccc1)c1ccccc1 (stereo not given) | 70.5 | 8.37 µM
63 | CCOc1ccc(CN(C)C(=O)CCl)cc1 | 85.8 | 10.2 µM
64 | Cc1nc([N+](=O)[O-])c(Br)n1CC(=O)c1cccc([N+](=O)[O-])c1 | 91.4 | 9.94 µM
65 | Nc1c(C(=O)N/N=C/c2ccc(F)cc2)oc2nc(-c3ccccc3)cc(-c3ccco3)c12 | 40.9 | > 50 µM (inactive)
66 | O=C(NC1CCCC1)C(c1ccc(Cl)cc1)N(Cc1ccc(F)cc1)C(=O)CCl (stereo not given) | 75.1 | 34.8 µM

Row | Compound | inhibition [1] [%] | IC50 [2]
67 | Cc1[nH]c2ccccc2c1/C=N/Nc1ccc([N+](=O)[O-])cc1 | 132 | 24.8 µM
68 | CCn1c(=O)c([N+](=O)[O-])c(Cl)c2ccccc21 | 83.9 | 30.3 µM
69 | CN(C)CCCN(C(=O)CCOc1ccccc1)c1nc2c(F)cccc2s1 | 30.5 | > 50 µM (inactive)
70 | CCNc1ccc(Br)cc(C(=O)/C=C/c2ccc(Cl)cc2Cl)c1=O | 99.2 | 32.9 µM
71 | COc1ccc(N2C(=O)CC(Sc3ncn[nH]3)C2=O)c(OC)c1 (stereo not given) | 5.17 | > 50 µM (inactive)
72 | CC(=O)OCCN(C)c1cc(SC(C)C)c2nonc2c1[N+](=O)[O-] | 68.1 | 35.5 µM
73 | CCOC(=O)c1c(-c2ccc(C)cc2)csc1NC(=O)/C(C#N)=C/c1ccc(O)c(OC)c1 | 4.51 | > 50 µM (inactive)
74 | O=[N+]([O-])c1ccc(N/N=C/c2ccc[nH]2)cc1 | 148 | 18 µM
75 | CC(C)c1ccc(CN2CCN(C(=O)CCl)CC2)cc1 | 89.6 | 7.94 µM
76 | CC1(C)C[C@H]2C=C(C=O)[C@]3(C=O)C[C@]3(C)[C@H]2C1 | 78.6 | 12.9 µM
77 | CCCCc1ccc(/C=C2\C(=O)c3ccccc3C(O)=C2C(=O)OCC)cc1 | 15.5 | > 50 µM (inactive)
78 | Clc1ccc(-c2csc3ncnc(Cl)c23)cc1 | 72.9 | 40.5 µM
79 | O=C1/C(=C/c2ccccc2[N+](=O)[O-])COc2ccccc21 | 39.6 | > 50 µM (inactive)
80 | N#C/C(=C/c1ccc(N2CCCCC2)o1)C(=O)Nc1ccc2ccccc2c1 | 98.5 | 27.4 µM
81 | Cc1ccc(N2C(=O)NC(=O)/C(=C/C=C/c3ccco3)C2=O)cc1 | 114 | 24.8 µM
82 | CCN(CC)c1ccc(/C=C/[N+](=O)[O-])cc1 | 0.227 | > 50 µM (inactive)
83 | CC(=O)Oc1ccc(OC(C)=O)c(SCCCCCCl)c1 | 83.5 | 17.6 µM
84 | Cc1ccc(C(=O)Oc2oc(-c3ccco3)nc2C=Nc2ccc(Cl)cc2)cc1 | 65.2 | 46.3 µM
85 | CCc1ccccc1NC(=O)CN(C)C(=O)Cn1ncc(Cl)c(Cl)c1=O | 81.8 | 7.32 µM
